Patent US20230190687A1, “SODIUM BUTYRATE FOR USE IN THE PREVENTION OR TREATMENT OF RHINOVIRUS INFECTION” (priority 2020, published 2023)

Tests used:
influenza infection = conditions: exogenous LL-37, mouse models of influenza infection; Barlow et al 2011; cited from earlier work
Rhinovirus = conditions: exogenous LL-37, cell models; Casanova et al 2020; cited from earlier work
HRV1B Rhinovirus = assay: Conditioned media of treated THP-1 macrophages incubated with HRV1B Rhinovirus; measurable live virus titrated; type: cell-based; conditions: then incubated with HRV1B, compared with control (distilled water), n=3
Protocol: With reference to FIG. 1, an experiment was carried out to treat leukocytes (the human monocytic THP-1 macrophage cell line differentiated into macrophages) with sodium butyrate, Vitamin D, or with a combination of sodium butyrate and Vitamin D.
The leukocyte cells were incubated for a period of time to allow them to release proteins into the surrounding cell culture media (referred to as ‘conditioned media’). The conditioned media was then incubated with HRV1B Rhinovirus. The leukocyte cells were incubated with a solution comprising 0.5 mM sodium butyrate, a solution comprising 0.5 mM Vitamin D, and with a solution comprising both 0.5 mM sodium butyrate and 0.5 mM Vitamin D.
The data shown is an average of n=3 independent biological replicates (the titration is an average of ten fold reductions quantified over the three replicates).

LL-37: a human member of the cathelicidin family (LLGDFFRKSKEKIGKEFKRIVQRIKDFLRNLVPRTES; Antibacterial peptide LL-37; UniProt P49913 134-170, looked up)
inflammation (influenza infection): decrease inflammation
survival rates (influenza infection): enhanced survival rates
Rhinovirus induced inflammatory cytokine release (Rhinovirus): reduce Rhinovirus induced inflammatory cytokine release

Vitamin D
reduction in measureable live virus (in words) (HRV1B Rhinovirus; conditioned media of THP-1 macrophages incubated with 0.5 mM Vitamin D, or 0.5 mM sodium butyrate and 0.5 mM Vitamin D): significant reduction

CCCC(=O)[O-].[Na+] [sodium butyrate]
reduction in measurable live virus (HRV1B Rhinovirus; conditioned media of THP-1 macrophages incubated with 0.5 mM sodium butyrate): 75-80%
